Like-named read-outs stand apart in the source and are kept apart here.
Legend:
E. coli AG100 = test: MIC by microdilution, E. coli AG100; type: cell-based; details: 18 h at 37 °C, average of three assays; for MIC: Escherichia coli, AG100, without PMBN; for MIC AG100: with PMBN at 1/5 of its MIC
Excerpt: (§1) Two E. coli strains, one B. subtilis strain, one S. aureus strain, one E. faecalis strain, one S. agalactiae strain and three Enterobacter aerogenes strains previously described were used. Briefly, AG100 was an E. coli wild type strain and AG100A its acrAB^- derivative. EA289 was a Kan^s derivative of an E. aerogenes multi-drug resistant (MDR) clinical isolate overexpressing AcrAB-TolC efflux pumps, and EA294 and EA298 its acrAB^- and tolC^- derivatives respectively. Strains were routinely grown at 37 °C on Luria-Bertani (LB) agar or in Mueller-Hinton II broth (MH), supplemented with kanamycine (50 μg.mL^−1) for AG100A, EA294 and EA298.
(§2) MIC values of antibiotics were determined by the microdilution method in liquid MH media in microplates in the absence or presence of chemosensitizers/modulators (e.g. PMBN, PAβN), as previously described. Permeabilization, blocking of efflux pumps, and isolates with different levels of porin or efflux expression were used to assess the involvement of the membrane barrier in antibiotic activity.
(§3) Susceptibilities were determined in 96-wells microplates with an inoculum of 2 × 10^5 cfu in 200 μL of MH broth containing two-fold serial dilutions of each antibiotics or compounds. Molecules were tested alone or in combination with other molecules in equimolar ratio. MICs were realized in the absence and in the presence of a membrane permeabilizer, the polymyxine B nonapeptide (PMBN) used at 51.2 mg/L (1/5 or 1/10 of its direct MIC previously determined). Actinonin and ciprofloxacin were used as internal antibiotic reference. […] Each test was systematically performed in triplicate. The average of three independent assays is presented in μg/mL in the respective tables.

EcPDF = biological target: T1, EcPDF (Escherichia coli, UniProt P0A6K3); test: PDF inhibition, formate dehydrogenase-coupled spectrophotometric assay (EcPDF); type: biochemical
T1 construct: made in house
T1 sequence (P0A6K3 whole entry): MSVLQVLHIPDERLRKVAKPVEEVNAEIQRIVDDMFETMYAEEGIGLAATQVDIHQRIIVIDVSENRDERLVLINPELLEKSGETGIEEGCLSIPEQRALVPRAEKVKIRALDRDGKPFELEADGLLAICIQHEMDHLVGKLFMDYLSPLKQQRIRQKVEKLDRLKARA
Description: (§4) The formate released by the deformylation reaction is used by FDH to convert NAD in NADH, the production of which being measured over time at 340 nm and controlled temperature (37 °C). The 200 μL reaction mixture contained 50 mM HEPES-NaOH pH7.5, 12 mM NAD^+, 4.5 U/mL FDH, 1 mM NiCl2 and PDF enzyme (either 40 nM SaPDF or 10 nM EcPDF or 100 nM AtPDF1B) previously diluted in presence of 0.1 mg/mL BSA. The reaction was started by addition of 1–6 mM Fo-Met-Ala-Ser. Kinetics parameters (kcat, Km) were derived from iterative non-linear least square fits using the Michaelis-menten equation based on the experimental data (Sigma-Plot, Kinetics module).
(§5) 1/KI*app is the slope of the v0/vi curve in function of compound concentration, where v0 and vi are the initial reaction rates in absence and presence of compound, respectively.
(§6) Determination of KI values was performed with a slightly modified protocol: reaction was started by addition of enzyme instead of Fo-Met-Ala-Ser, the latter being directly added to the mixture containing increasing concentrations of each compound. No pre-incubation of enzyme in presence of compound was done. 1/KI is the slope of the v0/vi curve in function of compound concentration, where v0 and vi are the initial reaction rates in absence and presence of compound respectively.

[1] = tested on: E. coli AG100A (AcrAB- derivative); test: MIC by microdilution, E. coli AG100A; type: cell-based; details: for MIC: Escherichia coli, 18 h, read-out: MIC AG100A; for MIC AG100A: with PMBN at 1/5 of its MIC, 18 h at 37 °C, average of three assays
Excerpt: as §1, §2, §3

S. aureus SA113 = test: MIC, S. aureus SA113; type: cell-based; details: Staphylococcus aureus
Excerpt: as §1, §2, §3

AtPDF1B = biological target: T2, AtPDF1B (Arabidopsis thaliana, UniProt Q9FUZ2); test: PDF inhibition, formate dehydrogenase-coupled spectrophotometric assay (AtPDF1B); type: biochemical; details: 100 nM AtPDF1B; for IC50: 2 mM Fo-Met-Ala-Ser, 10 min pre-incubation at 37 °C; for Ki: PDFI pre-incubated with enzyme 10 min at 37 °C, read-out: AtPDF1B KI*app
T2 construct: made in house
T2 sequence (Q9FUZ2 83-273): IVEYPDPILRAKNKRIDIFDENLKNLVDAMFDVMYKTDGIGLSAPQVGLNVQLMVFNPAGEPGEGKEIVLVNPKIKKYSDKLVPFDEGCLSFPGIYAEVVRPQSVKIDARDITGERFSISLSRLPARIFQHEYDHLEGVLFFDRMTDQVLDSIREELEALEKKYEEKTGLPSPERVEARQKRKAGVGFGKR
Description: as §4, with “Enzymatic activity was measured by a spectrophotometric assay where peptide deformylase activity is coupled to that of formate dehydrogenase. The formate” for “The formate”
as §5, §6

SaPDF [2] = biological target: T3, SaPDF (Streptococcus agalactiae serotype III, UniProt Q8E378, S2A); test: biochemical; details: for Ki: SaPDF KI, no pre-incubation, assay initiated by addition of enzyme, 40 nM SaPDF, 37 °C; for SaPDF KI/KI*app: enhancement potency (slow tight-binding)
T3 construct: the recombinant protein contains all residues of the 204 amino acids mature protein; made in house; host or cells: E. coli Rosetta 2(DE3)pLysS
T3 sequence (Q8E378 whole entry S2A): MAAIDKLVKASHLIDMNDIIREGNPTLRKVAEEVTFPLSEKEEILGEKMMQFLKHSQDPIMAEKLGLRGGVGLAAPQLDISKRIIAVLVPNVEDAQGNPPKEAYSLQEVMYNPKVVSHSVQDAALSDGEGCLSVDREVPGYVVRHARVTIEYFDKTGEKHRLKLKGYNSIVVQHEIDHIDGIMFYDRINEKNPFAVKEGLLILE
Description: as §4, with “Enzymatic activity was measured by a spectrophotometric assay where peptide deformylase activity is coupled to that of formate dehydrogenase. The formate” for “The formate”
as §5, §6

SaPDF [3] = biological target: T3, SaPDF; test: biochemical; details: SaPDF KI*app, PDFI pre-incubated with enzyme 10 min at 37 °C, started by 2 mM Fo-Met-Ala-Ser; 40 nM SaPDF
E. faecalis EFA 103.214 = test: MIC, E. faecalis EFA 103.214; type: cell-based
Excerpt: as §1, §2, §3

[4] = tested on: E. aerogenes Ea294, Ea289 derivative AcrAB-; test: MIC by microdilution, E. aerogenes Ea294; type: cell-based, Enterobacter aerogenes; details: for MIC Ea294: +PMBN at 1/5 of its MIC, average of three assays; for MIC: Klebsiella aerogenes, 18 h, read-out: MIC Ea294
Excerpt: as §1, §2, §3

[5] = tested on: E. aerogenes Ea289, MDR strain; test: MIC by microdilution, E. aerogenes Ea289; type: cell-based, Enterobacter aerogenes; details: for MIC Ea289: +PMBN at 1/5 of its MIC, average of three assays; for MIC: Klebsiella aerogenes, 18 h, read-out: MIC Ea289
Excerpt: as §1, §2, §3

[6] = tested on: E. aerogenes Ea298, Ea289 derivative tolC-; test: MIC by microdilution, E. aerogenes Ea298; type: cell-based, Enterobacter aerogenes; details: for MIC Ea298: +PMBN at 1/5 of its MIC, average of three assays; for MIC: Klebsiella aerogenes, 18 h, read-out: MIC Ea298
Excerpt: as §1, §2, §3

[7] = 10 nM EcPDF, 2 mM Fo-Met-Ala-Ser, 10 min pre-incubation at 37 °C, read-out: IC50 EcPDF
[8] = EcPDF KI*app, PDFI pre-incubated with enzyme 10 min at 37 °C, started by 2 mM Fo-Met-Ala-Ser, 10 nM EcPDF
[9] = Enterococcus faecalis, EFA103.214, read-out: MIC E. faecalis EFA 103.214
[10] = PDFI pre-incubated with enzyme 10 min at 37 °C, started by 2 mM Fo-Met-Ala-Ser, 10 nM EcPDF, read-out: EcPDF KI*app

| SMILES | MIC (E. coli AG100) [µg/mL] | MIC AG100 (E. coli AG100) [µg/mL] | IC50 (EcPDF; [7]) [µM] | MIC [1] [µg/mL] | MIC AG100A [1] [µg/mL] | MIC (S. aureus SA113) [µg/mL] | IC50 (AtPDF1B) [µM] | IC50 (EcPDF) [µM] | Ki (EcPDF; [8]) [µM] | IC50 (SaPDF [2]) [µM] | Ki (SaPDF [3]) [µM] | MIC (E. faecalis EFA 103.214; [9]) [µg/mL] | MIC Ea294 [4] [µg/mL] | MIC [4] [µg/mL] | MIC Ea289 [5] [µg/mL] | MIC [5] [µg/mL] | MIC Ea298 [6] [µg/mL] | MIC [6] [µg/mL] | further results |
| --- | --- | --- | --- | --- | --- | --- | --- | --- | --- | --- | --- | --- | --- | --- | --- | --- | --- | --- | --- |
| CCCCC(CC(=O)NO)c1nc(-c2ccc([N+](=O)[O-])cc2)no1 (stereo not drawn) [AT001] | > 64 | >64 | 0.16 | > 64 | 32 | – | – | – | – | – | – | – | – | – | – | – | – | – | – |
| CCCCC(CC(=O)NO)c1nc(Cc2ccc(C)cc2)no1 (stereo not drawn) [AT012] | > 64 | 32 | – | 64 | 8 | > 64 | 0.46 ± 0.022 | 0.027 ± 0.003 | 0.07 ± 0.008 | 0.067 ± 0.005 | 0.4 ± 0.035 | > 64 | – | – | – | – | – | – | Ki (AtPDF1B; started by 2 mM Fo-Met-Ala-Ser): 0.625 ± 0.03 µM |
| O=C(N[C@H](CO)[C@H](O)c1ccc([N+](=O)[O-])cc1)C(Cl)Cl [Chloramphenicol, chloramphenicol, reference compound] | – | – | – | – | – | – | – | – | – | – | – | – | 4 | 32 | 8 | > 128 | 4 | 32 | – |
| CCCCC(CC(=O)NO)c1nc(Cc2ccc(-c3ccccc3)cc2)no1 (stereo not drawn) [AT014] | > 64 | 64 | – | > 64 | 64 | > 64 | 0.55 ± 0.025 | 0.025 ± 0.004 | 0.066 ± 0.003 | 0.016 ± 0.002 | 0.065 ± 0.01 | > 64 | – | – | – | – | – | – | Ki (AtPDF1B; started by 2 mM Fo-Met-Ala-Ser): 0.909 ± 0.032 µM; Ki (SaPDF [2]): 0.084 ± 0.006 µM; SaPDF KI/KI*app (SaPDF [2]): 1 |
| CCCC[C@H](CC(=O)NO)c1nc(-c2ccccc2)co1 [AT003] | > 64 | 64 | 0.19 | > 64 | 16 | > 64 | – | – | – | – | – | > 64 | – | – | – | – | – | – | – |
| CCCCC(CC(=O)NO)c1nc(C(=O)OCC)co1 (stereo not drawn) [AT004] | > 64 | >64 | 0.11 | > 64 | 32 | > 64 | – | – | – | – | – | > 64 | – | – | – | – | – | – | – |
| CCCCC(CC(=O)NO)c1nc(-c2ccc(C(F)(F)F)cc2)no1 (stereo not drawn) [AT011] | > 64 | 8 | – | 32 | 4 | > 64 | 6 | 0.215 ± 0.017 | 0.333 ± 0.013 | 0.128 ± 0.032 | 0.43 ± 0.039 | > 64 | 16 | 128 | 64 | > 128 | 16 | 128 | Ki (AtPDF1B; started by 2 mM Fo-Met-Ala-Ser): 5 µM; Ki (SaPDF [2]): 0.4 ± 0.02 µM; SaPDF KI/KI*app (SaPDF [2]): 1 |
| O=C(O)c1cn(C2CC2)c2cc(N3CCNCC3)c(F)cc2c1=O [Ciprofloxacin, ciprofloxacin, reference compound] | – | – | – | – | – | – | – | – | – | – | – | – | 8 | 16 | 64 | 64 | 4 | 8 | – |
| CCCC[C@H](CC(=O)NO)c1nc(Cc2ccc(C(=O)O)cc2)no1 [AT021] | – | – | – | – | – | – | 8.2 ± 1 | 0.075 ± 0.002 | 0.076 ± 0.005 | 0.211 ± 0.01 | 0.2 ± 0.01 | – | – | – | – | – | – | – | Ki (AtPDF1B): ~10 µM |
| CCCCC(CC(=O)NO)c1nc(Cc2nc3ccccc3s2)no1 (stereo not drawn) [AT017] | > 64 | 64 | 0.03 ± 0.008 | 64 | 8 | > 64 | – | – | – | 0.023 ± 0.004 | 0.085 ± 0.008 | > 64 | – | – | – | – | – | – | Ki (EcPDF; [10]): 0.041 ± 0.003 µM |
| CC(C)(O/N=C(\C(=O)N[C@@H]1C(=O)N2C(C(=O)[O-])=C(C[n+]3ccccc3)CS[C@H]12)c1csc(N)n1)C(=O)O [Ceftazidim, ceftazidime, reference compound] | – | – | – | – | – | – | – | – | – | – | – | – | 64 | > 128 | 64 | > 128 | 64 | > 128 | – |
| CCCCC(CC(=O)NO)c1nc(Cc2ccc3c(c2)OCO3)no1 (stereo not drawn) [AT016] | > 64 | 64 | 0.01 ± 0.001 | 64 | 8 | > 64 | – | – | – | 0.01 ± 0.002 | 0.055 ± 0.005 | – | – | – | – | – | – | – | Ki (EcPDF; [10]): 0.026 ± 0.005 µM; EcPDF KI/KI*app (EcPDF; enhancement potency (slow tight-binding)): 1; Ki (EcPDF; no pre-incubation, assay initiated by addition of enzyme, 10 nM EcPDF, 37 °C, read-out: EcPDF KI): 0.025 ± 0.003 µM; Ki (SaPDF [2]): 0.067 ± 0.007 µM; SaPDF KI/KI*app (SaPDF [2]): 1; MIC (E. faecalis EFA 103.214; Enterococcus faecalis, EFA103.214; read-out: MIC E. faecalis EFA 103.214): > 64 µg/mL |
| CCCCC(CC(=O)NO)c1nc(-c2ccccc2)no1 (stereo not drawn) [AT006] | > 64 | 64 | 0.155 | > 64 | 32 | > 64 | – | – | – | – | – | > 64 | – | – | – | – | – | – | – |

— PMC5071857, “A unique peptide deformylase platform to rationally design and challenge novel active compounds” (Scientific Reports, 2016)
